Where “and” joins values, the source holds several entries; their conditions need not be identical. Identical values can stand only once. Like-named read-outs stand apart in the source and are kept apart here. Blank lines part the entries; values can stand above or below the molecule they belong to.
What was measured:
FLT3 = details: cited from earlier work
[1] = Plasma concentrations of midostaurin and metabolites
clinical = details: human, plasma, intravenous, cycle 1, day 1; for AUC(0-t): AUC (0–24 h); for concentration at 24 h: C24 h
[2] = Concomitant (days 1-7 and 15-21), 50 mg BID, Induction cycle 1, day 1
[3] = Concomitant, 50 mg BID, First consolidation cycle, day 15.5
[4] = Concomitant, 50 mg BID, Induction cycle 1, Day 1 (+ 2 h)
[5] = Concomitant, 50 mg BID, Induction cycle 1, Day 1 (+ 4 h)
[6] = Concomitant, 50 mg BID, Induction cycle 1, day 2
[7] = Concomitant, 50 mg BID, Induction cycle 1, day 4
[8] = Concomitant, 50 mg BID, Induction cycle 1, day 15 (+ 2 h)
[9] = Concomitant, 50 mg BID, Induction cycle 1, day 15 (+ 4 h)
[10] = Sequential (days 8-21), 50 mg BID, Induction cycle 1, day 8
[11] = Sequential, 50 mg BID, First consolidation cycle, day 1.5
[12] = Sequential, 50 mg BID, First consolidation cycle, day 15.5
[13] = Sequential, 50 mg BID, First consolidation cycle, day 29.5
[14] = Sequential, 50 mg BID, Induction cycle 1, day 8 (+ 2 h)
[15] = Sequential, 50 mg BID, Induction cycle 1, day 8 (+ 4 h)
[16] = Sequential, 50 mg BID, Induction cycle 1, day 9
[17] = Sequential, 50 mg BID, Induction cycle 1, day 15
[18] = Sequential, 50 mg BID, Induction cycle 1, day 22.5
[19] = Sequential, 50 mg BID, Induction cycle 1, day 29.5
[20] = Concomitant midostaurin n = 13, cycle 1, day 1
[21] = Sequential midostaurin n = 13, cycle 1, day 1
[22] = Mean ± SD, Concomitant midostaurin n = 13
[23] = Mean ± SD, Sequential midostaurin n = 13
[24] = Median, Concomitant midostaurin n = 13
[25] = Median, Sequential midostaurin n = 13

Plasma concentration, Max [1, 2]: LLOQ
Plasma concentration, Median [1, 2]: LLOQ
Plasma concentration, Min [1, 2]: LLOQ
Plasma concentration, Max [1, 3]: 810 ng/mL
Plasma concentration, Min [1, 3]: 810 ng/mL
Plasma concentration, individual values (n = 2; merged Median/Min/Max cell) ([1]; Concomitant, 50 mg BID, First consolidation cycle, day 29.5): 809 ng/mL and 2990 ng/mL
Plasma concentration, Max [1, 4]: 812 ng/mL
Plasma concentration, Median [1, 4]: 170 ng/mL
Plasma concentration, Min [1, 4]: 52.9 ng/mL
Plasma concentration, Max [1, 5]: 209 ng/mL
Plasma concentration, Median [1, 5]: 137 ng/mL
Plasma concentration, Min [1, 5]: 115 ng/mL
Plasma concentration, Max [1, 6]: 460 ng/mL
Plasma concentration, Median [1, 6]: 361 ng/mL
Plasma concentration, Min [1, 6]: 228 ng/mL
Plasma concentration, Max [1, 7]: 1090 ng/mL
Plasma concentration, Median [1, 7]: 832 ng/mL
Plasma concentration, Min [1, 7]: 570 ng/mL
Plasma concentration, Max [1, 8]: 1920 ng/mL
Plasma concentration, Median [1, 8]: 1170 ng/mL
Plasma concentration, Min [1, 8]: 814 ng/mL
Plasma concentration, Max [1, 9]: 1860 ng/mL
Plasma concentration, Median [1, 9]: 1465 ng/mL
Plasma concentration, Min [1, 9]: 893 ng/mL
Plasma concentration, Max [1, 10]: LLOQ
Plasma concentration, Median [1, 10]: LLOQ
Plasma concentration, Min [1, 10]: LLOQ
Plasma concentration, Max [1, 11]: 3110 ng/mL
Plasma concentration, Median [1, 11]: 1740 ng/mL
Plasma concentration, Min [1, 11]: 835 ng/mL
Plasma concentration, Max [1, 12]: 4210 ng/mL
Plasma concentration, Median [1, 12]: 2685 ng/mL
Plasma concentration, Min [1, 12]: 1490 ng/mL
Plasma concentration, Max [1, 13]: 5320 ng/mL
Plasma concentration, Median [1, 13]: 2230 ng/mL
Plasma concentration, Min [1, 13]: 1440 ng/mL
Plasma concentration, Max [1, 14]: 194 ng/mL
Plasma concentration, Median [1, 14]: 70.8 ng/mL
Plasma concentration, Min [1, 14]: 35.9 ng/mL
Plasma concentration, Max [1, 15]: 207 ng/mL
Plasma concentration, Median [1, 15]: 113 ng/mL
Plasma concentration, Min [1, 15]: 58.2 ng/mL
Plasma concentration, Max [1, 16]: 414 ng/mL
Plasma concentration, Median [1, 16]: 293 ng/mL
Plasma concentration, Min [1, 16]: 145 ng/mL
Plasma concentration, Max [1, 17]: 1670 ng/mL
Plasma concentration, Median [1, 17]: 1460 ng/mL
Plasma concentration, Min [1, 17]: 903 ng/mL
Plasma concentration, Max [1, 18]: 3540 ng/mL
Plasma concentration, Median [1, 18]: 2800 ng/mL
Plasma concentration, Min [1, 18]: 1630 ng/mL
Plasma concentration, Max [1, 19]: 3330 ng/mL
Plasma concentration, Median [1, 19]: 1955 ng/mL
Plasma concentration, Min [1, 19]: 1350 ng/mL
Half-life (qualitative) ([1]; midostaurin 50 mg twice daily, stable levels between dosing treatment phases): long half-life
Compound: CO[C@@H]1[C@H](N(C)C(=O)c2ccccc2)C[C@H]2O[C@]1(C)n1c3ccccc3c3c4c(c5c6ccccc6n2c5c31)C(=O)N[C@H]4O [CGP52421]
Inhibition of FLT3 in vitro (FLT3): capable of inhibiting FLT3 in vitro

Compound: CN(C(=O)c1ccccc1)[C@@H]1C[C@H]2O[C@@](C)([C@@H]1O)n1c3ccccc3c3c4c(c5c6ccccc6n2c5c31)C(=O)NC4 [CGP62221]
Inhibition of FLT3 in vitro (FLT3): capable of inhibiting FLT3 in vitro

Pharmacokinetic interaction with midostaurin (data not shown): No interaction
Compound: Nc1ccn([C@@H]2O[C@H](CO)[C@@H](O)[C@@H]2O)c(=O)n1 [cytarabine]

CL, Mean ± SD [20]: 269 ± 130 L/h/m^2
CL, Median [20]: 283 L/h/m^2
Vz, Mean ± SD [20]: 717 ± 266 L/m^2
Vz, Median [20]: 694 L/m^2
C24 h, Mean ± SD [21]: 0 ± 0 ng/mL
CL, Mean ± SD [21]: 330 ± 226 L/h/m^2
CL, Median [21]: 270 L/h/m^2
Vz, Mean ± SD [21]: 946 ± 696 L/m^2
Vz, Median [21]: 775 L/m^2
C24 h, Median (Sequential midostaurin n = 13, cycle 1, day 1, LLOQ is 5 ng/mL): LLOQ
Effect of midostaurin on clearance (midostaurin 50 mg twice daily): does not seem to be affected
C24 h, Concomitant/sequential midostaurin (ratio, cycle 1, day 1): 17.4/LLOQ
AUC(0-t) (clinical; [22]): 373 ng·h/mL
AUC(0-t) (clinical; [23]): 267 ng·h/mL
AUC(0-t) (clinical; [24]): 189 ng·h/mL
AUC(0-t) (clinical; [25]): 159 ng·h/mL
concentration at 24 h (clinical; [22]): 17.4 ng/mL
concentration at 24 h (clinical; [24]): 17.4 ng/mL
Cmax (clinical; [22]): 98 ng/mL
Cmax (clinical; [23]): 229 ng/mL
Cmax (clinical; [24]): 89 ng/mL
Cmax (clinical; [25]): 76 ng/mL
Tmax (clinical; [22]): 30 min
Tmax (clinical; [23]): 36 min
Tmax (clinical; [24]): 30 min
Tmax (clinical; [25]): 30 min
Compound: COc1cccc2c1C(=O)c1c(O)c3c(c(O)c1C2=O)C[C@@](O)(C(C)=O)C[C@@H]3O[C@H]1C[C@H](N)[C@H](O)[C@H](C)O1 [daunorubicin]
